Test results published in patent US9708314B2, “Heterocyclic amide compound” (NISSAN CHEMICAL INDUSTRIES, LTD., priority 2013, dated 2017).

Assays:
Type in all cases: in vivo
[1] = system: directly sowed Oryza sativa; assay: Test Example 4: effect on crop by application to foliage (diluvial soil, plastic box); conditions: application to foliage, application herbicide amount 320 g/ha
Outline: (§1)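 Greenhouse plants (25° C. to 30° C., 14 d, diluvial soil) receive a foliar spray of water-diluted emulsifiable formulation at defined g/ha. Grading after 3 weeks uses a six-step herbicidal-ratio scale, with 4 covering 70% to <90% and 1 covering 5% to <20%.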

Brassica campestris L. = assay: as above; conditions: application to foliage, application herbicide amount 320 g/ha
Outline: as §1

[2] = system: Beta vulgaris ssp. vulgaris; assay: as above; conditions: application to foliage, application herbicide amount 320 g/ha
Outline: as §1

Glycine max = assay: as above; conditions: application to foliage, application herbicide amount 320 g/ha
Outline: as §1

Stellaria media = assay: Test Example 4: herbicidal effect by application to foliage (diluvial soil, plastic box); conditions: application to foliage, application herbicide amount 320 g/ha
Outline: as §1

Amaranthus retroflexus = assay: as above; conditions: application to foliage, application herbicide amount 320 g/ha
Outline: as §1

[3] = system: transplanted Oryza sativa; assay: Test Example 1: effect on crop, application before weed generation in submerged conditions; conditions: Application herbicide amount 320 g/ha; Seventeenth Table
Outline: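 Water-diluted emulsion formulation is applied onto flood water (4 cm deep) covering alluvial soil on the day weed seeds are sown, after transplanting 2.5 leaf stage rice. Rates are expressed per hectare. Injury or control is graded 0–5 three weeks later.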

SMILES: Cc1nnc(NC(=O)c2ccc(C(F)(F)F)n3c([S+]([O-])C(C)C)nnc23)o1 (stereo not shown) [1-035]
- d (directly sowed Oryza sativa) effect on crop [1]: 4 (Herbicidal ratio of 70% or more and less than 90%)
- g (Brassica campestris L.) effect on crop (Brassica campestris L.): 3 (Herbicidal ratio of 40% or more and less than 70%)
- f (Beta vulgaris ssp. vulgaris) effect on crop [2]: 5 (Herbicidal ratio of 90% or more (almost completely withered))
- c (Glycine max) effect on crop (Glycine max): 3 (Herbicidal ratio of 40% or more and less than 70%)
- P (Stellaria media) herbicidal effect (Stellaria media): 5 (Herbicidal ratio of 90% or more (almost completely withered))
- N (Amaranthus retroflexus) herbicidal effect (Amaranthus retroflexus): 5 (Herbicidal ratio of 90% or more (almost completely withered))
- a: transplanted Oryza sativa (effect on crop grade) [3]: 2 (Herbicidal ratio of 20% or more and less than 40%)

SMILES: Cc1nnc(NC(=O)c2ccc(C(F)(F)F)n3c(C[S+](C)[O-])nnc23)o1 (stereo not shown) [1-036]
- d (directly sowed Oryza sativa) effect on crop [1]: 4 (Herbicidal ratio of 70% or more and less than 90%)
- g (Brassica campestris L.) effect on crop (Brassica campestris L.): 5 (Herbicidal ratio of 90% or more (almost completely withered))
- f (Beta vulgaris ssp. vulgaris) effect on crop [2]: 5 (Herbicidal ratio of 90% or more (almost completely withered))
- c (Glycine max) effect on crop (Glycine max): 3 (Herbicidal ratio of 40% or more and less than 70%)
- P (Stellaria media) herbicidal effect (Stellaria media): 5 (Herbicidal ratio of 90% or more (almost completely withered))
- N (Amaranthus retroflexus) herbicidal effect (Amaranthus retroflexus): 5 (Herbicidal ratio of 90% or more (almost completely withered))
- a: transplanted Oryza sativa (effect on crop grade) [3]: 4 (Herbicidal ratio of 70% or more and less than 90%)

SMILES: Cc1nnc(NC(=O)c2ccc(C(F)(F)F)n3c(CS(C)(=O)=O)nnc23)o1 [1-037]
- d (directly sowed Oryza sativa) effect on crop [1]: 3 (Herbicidal ratio of 40% or more and less than 70%)
- g (Brassica campestris L.) effect on crop (Brassica campestris L.): 4 (Herbicidal ratio of 70% or more and less than 90%)
- f (Beta vulgaris ssp. vulgaris) effect on crop [2]: 5 (Herbicidal ratio of 90% or more (almost completely withered))
- c (Glycine max) effect on crop (Glycine max): 1 (Herbicidal ratio of 5% or more and less than 20%)
- P (Stellaria media) herbicidal effect (Stellaria media): 4 (Herbicidal ratio of 70% or more and less than 90%)
- N (Amaranthus retroflexus) herbicidal effect (Amaranthus retroflexus): 5 (Herbicidal ratio of 90% or more (almost completely withered))
- a: transplanted Oryza sativa (effect on crop grade) [3]: 0 (Herbicidal ratio of 5% or less (almost no effect))

SMILES: Cc1nnc(NC(=O)c2ccc(C(F)(F)F)n3c(C[S+]([O-])CC(F)(F)F)nnc23)o1 (stereo not shown) [1-038]
- d (directly sowed Oryza sativa) effect on crop [1]: 4 (Herbicidal ratio of 70% or more and less than 90%)
- g (Brassica campestris L.) effect on crop (Brassica campestris L.): 4 (Herbicidal ratio of 70% or more and less than 90%)
- f (Beta vulgaris ssp. vulgaris) effect on crop [2]: 5 (Herbicidal ratio of 90% or more (almost completely withered))
- c (Glycine max) effect on crop (Glycine max): 0 (Herbicidal ratio of 5% or less (almost no effect))
- P (Stellaria media) herbicidal effect (Stellaria media): 5 (Herbicidal ratio of 90% or more (almost completely withered))
- N (Amaranthus retroflexus) herbicidal effect (Amaranthus retroflexus): 5 (Herbicidal ratio of 90% or more (almost completely withered))
- a: transplanted Oryza sativa (effect on crop grade) [3]: 0 (Herbicidal ratio of 5% or less (almost no effect))

SMILES: Cc1nnc(NC(=O)c2ccc(C(F)(F)F)n3c(S(C)(=O)=O)nnc23)o1 [1-040]
- d (directly sowed Oryza sativa) effect on crop [1]: 1 (Herbicidal ratio of 5% or more and less than 20%)
- g (Brassica campestris L.) effect on crop (Brassica campestris L.): 1 (Herbicidal ratio of 5% or more and less than 20%)
- f (Beta vulgaris ssp. vulgaris) effect on crop [2]: 5 (Herbicidal ratio of 90% or more (almost completely withered))
- c (Glycine max) effect on crop (Glycine max): 0 (Herbicidal ratio of 5% or less (almost no effect))
- P (Stellaria media) herbicidal effect (Stellaria media): 5 (Herbicidal ratio of 90% or more (almost completely withered))
- N (Amaranthus retroflexus) herbicidal effect (Amaranthus retroflexus): 5 (Herbicidal ratio of 90% or more (almost completely withered))
- a: transplanted Oryza sativa (effect on crop grade) [3]: 1 (Herbicidal ratio of 5% or more and less than 20%)

SMILES: CCS(=O)(=O)c1nnc2c(C(=O)Nc3nnc(C)o3)ccc(C(F)(F)F)n12 [1-041]
- d (directly sowed Oryza sativa) effect on crop [1]: 2 (Herbicidal ratio of 20% or more and less than 40%)
- g (Brassica campestris L.) effect on crop (Brassica campestris L.): 0 (Herbicidal ratio of 5% or less (almost no effect))
- f (Beta vulgaris ssp. vulgaris) effect on crop [2]: 5 (Herbicidal ratio of 90% or more (almost completely withered))
- c (Glycine max) effect on crop (Glycine max): 0 (Herbicidal ratio of 5% or less (almost no effect))
- P (Stellaria media) herbicidal effect (Stellaria media): 5 (Herbicidal ratio of 90% or more (almost completely withered))
- N (Amaranthus retroflexus) herbicidal effect (Amaranthus retroflexus): 5 (Herbicidal ratio of 90% or more (almost completely withered))
- a: transplanted Oryza sativa (effect on crop grade) [3]: 0 (Herbicidal ratio of 5% or less (almost no effect))

SMILES: CCOC(=O)Cc1nnc2c(C(=O)Nc3nnc(C)o3)ccc(C(F)(F)F)n12 [1-042]
- d (directly sowed Oryza sativa) effect on crop [1]: 3 (Herbicidal ratio of 40% or more and less than 70%)
- g (Brassica campestris L.) effect on crop (Brassica campestris L.): 3 (Herbicidal ratio of 40% or more and less than 70%)
- f (Beta vulgaris ssp. vulgaris) effect on crop [2]: 5 (Herbicidal ratio of 90% or more (almost completely withered))
- c (Glycine max) effect on crop (Glycine max): 1 (Herbicidal ratio of 5% or more and less than 20%)
- P (Stellaria media) herbicidal effect (Stellaria media): 4 (Herbicidal ratio of 70% or more and less than 90%)
- N (Amaranthus retroflexus) herbicidal effect (Amaranthus retroflexus): 4 (Herbicidal ratio of 70% or more and less than 90%)
- a: transplanted Oryza sativa (effect on crop grade) [3]: 0 (Herbicidal ratio of 5% or less (almost no effect))

SMILES: Cc1ccc(-c2nnc3c(C(=O)Nc4nnc(C)o4)ccc(C(F)(F)F)n23)cc1 [1-043]
- d (directly sowed Oryza sativa) effect on crop [1]: 2 (Herbicidal ratio of 20% or more and less than 40%)
- g (Brassica campestris L.) effect on crop (Brassica campestris L.): 3 (Herbicidal ratio of 40% or more and less than 70%)
- f (Beta vulgaris ssp. vulgaris) effect on crop [2]: 5 (Herbicidal ratio of 90% or more (almost completely withered))
- c (Glycine max) effect on crop (Glycine max): 2 (Herbicidal ratio of 20% or more and less than 40%)
- P (Stellaria media) herbicidal effect (Stellaria media): 4 (Herbicidal ratio of 70% or more and less than 90%)
- N (Amaranthus retroflexus) herbicidal effect (Amaranthus retroflexus): 5 (Herbicidal ratio of 90% or more (almost completely withered))
- a: transplanted Oryza sativa (effect on crop grade) [3]: 3 (Herbicidal ratio of 40% or more and less than 70%)

SMILES: Cc1nnc(NC(=O)c2ccc(C(F)(F)F)n3c(-c4ccc(F)cc4)nnc23)o1 [1-044]
- d (directly sowed Oryza sativa) effect on crop [1]: 3 (Herbicidal ratio of 40% or more and less than 70%)
- g (Brassica campestris L.) effect on crop (Brassica campestris L.): 4 (Herbicidal ratio of 70% or more and less than 90%)
- f (Beta vulgaris ssp. vulgaris) effect on crop [2]: 5 (Herbicidal ratio of 90% or more (almost completely withered))
- c (Glycine max) effect on crop (Glycine max): 0 (Herbicidal ratio of 5% or less (almost no effect))
- P (Stellaria media) herbicidal effect (Stellaria media): 4 (Herbicidal ratio of 70% or more and less than 90%)
- N (Amaranthus retroflexus) herbicidal effect (Amaranthus retroflexus): 5 (Herbicidal ratio of 90% or more (almost completely withered))
- a: transplanted Oryza sativa (effect on crop grade) [3]: 1 (Herbicidal ratio of 5% or more and less than 20%)

SMILES: COc1cccc(-c2nnc3c(C(=O)Nc4nnc(C)o4)ccc(C(F)(F)F)n23)c1 [1-046]
- d (directly sowed Oryza sativa) effect on crop [1]: 3 (Herbicidal ratio of 40% or more and less than 70%)
- g (Brassica campestris L.) effect on crop (Brassica campestris L.): 4 (Herbicidal ratio of 70% or more and less than 90%)
- f (Beta vulgaris ssp. vulgaris) effect on crop [2]: 5 (Herbicidal ratio of 90% or more (almost completely withered))
- c (Glycine max) effect on crop (Glycine max): 2 (Herbicidal ratio of 20% or more and less than 40%)
- P (Stellaria media) herbicidal effect (Stellaria media): 4 (Herbicidal ratio of 70% or more and less than 90%)
- N (Amaranthus retroflexus) herbicidal effect (Amaranthus retroflexus): 5 (Herbicidal ratio of 90% or more (almost completely withered))
- a: transplanted Oryza sativa (effect on crop grade) [3]: 2 (Herbicidal ratio of 20% or more and less than 40%)

SMILES: COc1ccccc1-c1nnc2c(C(=O)Nc3nnc(C)o3)ccc(C(F)(F)F)n12 [1-047]
- d (directly sowed Oryza sativa) effect on crop [1]: 3 (Herbicidal ratio of 40% or more and less than 70%)
- g (Brassica campestris L.) effect on crop (Brassica campestris L.): 4 (Herbicidal ratio of 70% or more and less than 90%)
- f (Beta vulgaris ssp. vulgaris) effect on crop [2]: 5 (Herbicidal ratio of 90% or more (almost completely withered))
- c (Glycine max) effect on crop (Glycine max): 1 (Herbicidal ratio of 5% or more and less than 20%)
- P (Stellaria media) herbicidal effect (Stellaria media): 4 (Herbicidal ratio of 70% or more and less than 90%)
- N (Amaranthus retroflexus) herbicidal effect (Amaranthus retroflexus): 5 (Herbicidal ratio of 90% or more (almost completely withered))
- a: transplanted Oryza sativa (effect on crop grade) [3]: 1 (Herbicidal ratio of 5% or more and less than 20%)

SMILES: Cc1nnc(NC(=O)c2ccc(C(F)(F)F)n3c(CC(=O)O)nnc23)o1 [1-048]
- d (directly sowed Oryza sativa) effect on crop [1]: 4 (Herbicidal ratio of 70% or more and less than 90%)
- g (Brassica campestris L.) effect on crop (Brassica campestris L.): 4 (Herbicidal ratio of 70% or more and less than 90%)
- f (Beta vulgaris ssp. vulgaris) effect on crop [2]: 5 (Herbicidal ratio of 90% or more (almost completely withered))
- c (Glycine max) effect on crop (Glycine max): 0 (Herbicidal ratio of 5% or less (almost no effect))
- P (Stellaria media) herbicidal effect (Stellaria media): 4 (Herbicidal ratio of 70% or more and less than 90%)
- N (Amaranthus retroflexus) herbicidal effect (Amaranthus retroflexus): 4 (Herbicidal ratio of 70% or more and less than 90%)
- a: transplanted Oryza sativa (effect on crop grade) [3]: 1 (Herbicidal ratio of 5% or more and less than 20%)

SMILES: Cc1nnc(NC(=O)c2ccc(C(F)(F)F)n3c(CC(=O)OC(C)C)nnc23)o1 [1-049]
- d (directly sowed Oryza sativa) effect on crop [1]: 3 (Herbicidal ratio of 40% or more and less than 70%)
- g (Brassica campestris L.) effect on crop (Brassica campestris L.): 4 (Herbicidal ratio of 70% or more and less than 90%)
- f (Beta vulgaris ssp. vulgaris) effect on crop [2]: 5 (Herbicidal ratio of 90% or more (almost completely withered))
- c (Glycine max) effect on crop (Glycine max): 4 (Herbicidal ratio of 70% or more and less than 90%)
- P (Stellaria media) herbicidal effect (Stellaria media): 4 (Herbicidal ratio of 70% or more and less than 90%)
- N (Amaranthus retroflexus) herbicidal effect (Amaranthus retroflexus): 5 (Herbicidal ratio of 90% or more (almost completely withered))
- a: transplanted Oryza sativa (effect on crop grade) [3]: 0 (Herbicidal ratio of 5% or less (almost no effect))
